The source of these data is publication PMC12117998, “First Steps toward the Design of Peptides that Influence the Intracellular Palmitoylation Machinery” (Chembiochem, 2025).

In one series the test system is HeLa cells. The series is described as follows: Cell viability assay (resazurin). Format: cell-based. The conditions noted are these: 24 h, CF‐labeled peptides, n = 3 (Figure 3A). As for the experimental part: (§1) HeLa (13,000), MDA‐MB‐231 (26,000), HFF‐1 (16,000) cells, mEGFP‐HRas (18,000), and SW480 and SW620 (15,000) were seeded into a 96‐well plate. Cells were treated with suitable peptide concentrations diluted in the corresponding serum‐free culture medium. After 24 h incubation under standard growth conditions, the cells were washed once with PBS. The positive control was treated for 10 min with 70% EtOH. To test the viability, cells were treated with a resazurin solution (In Vitro Toxicology Assay Kit, resazurin based, Sigma) and incubated for a further 1–2 h. The product resorufin was measured at 595 nm (λex = 550 nm) on an infinite M200 plate reader (Tecan) and normalized to the untreated negative control cells.

The next series concerns HeLa mEGFP‐HRas cells. The series is described as follows: Cell viability assay (resazurin). It counts as cell-based. The following applies: 24 h, n = 3 (Figure S11A). As for the experimental part: as §1
A general note: Resazurin is reduced to fluorescent resorufin, in cell work by metabolically active cells.

Another series concerns MDA‐MB‐231. The series can be described thus: Cell viability assay (resazurin). Format: cell-based. The conditions noted are these: MDA‐MB‐231, 24 h, CF‐labeled peptides, n = 3 (Figure 3B). As for the experimental part: as §1
In series [1] the test system is HFF‐1 cells. The series can be described thus: Cell viability assay (resazurin). Format: cell-based, human. The conditions noted are these: HFF‐1, 24 h, CF‐labeled peptides, n = 3 (Figure 3C). On the procedure: as §1
The subject of series [2] is HFF‐1 cells. The series can be described thus: Cellular uptake by flow cytometry. Format: cell-based, human. The following applies: HFF‐1, 30 min, 5 μM CF‐labeled peptides, serum-free medium, 37 °C, n ≥ 3 (Figure 3F). On the procedure:
HeLa (90,000), MDA‐MB‐231 (120,000), and HFF‐1 (125,000) cells were seeded into a 24‐well plate. Cells were treated with the desired concentration of CF‐labeled peptide diluted in the appropriate serum‐free medium for 30 min at 37 °C and 5% CO2. Afterward, cells were washed once with PBS, detached from the plate using indicator‐free trypsin/EDTA and resuspended in indicator‐free culture medium. The cell mixture was measured on the Guava easyCyte flow cytometer (Merck) using the GRN‐B (520/30) detector.
In general terms: A flow cytometer gives signals particle by particle.

A further series deals with T1, human 6His‐ZDHHC7 (Homo sapiens, UniProt Q9NXF8).
T1 construct: 6His; purchased Proteintech
T1 sequence (Q9NXF8 1-308): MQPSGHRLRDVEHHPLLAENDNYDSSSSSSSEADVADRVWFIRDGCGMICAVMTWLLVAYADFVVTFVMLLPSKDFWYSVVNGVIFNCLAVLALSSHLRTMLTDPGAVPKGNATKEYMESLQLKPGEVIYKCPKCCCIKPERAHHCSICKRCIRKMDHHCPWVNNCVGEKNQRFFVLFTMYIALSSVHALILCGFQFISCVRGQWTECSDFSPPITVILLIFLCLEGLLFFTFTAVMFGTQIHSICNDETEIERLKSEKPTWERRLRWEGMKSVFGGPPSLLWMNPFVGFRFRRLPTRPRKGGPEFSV
The series can be described thus: In vitro palmitoylation assay (LC‐MS). It counts as biochemical. The following applies: 50 μM CF‐labeled peptide, 37 °C, LC‐MS (Figure 4). On the procedure: The 50 μM CF‐labeled peptides were incubated with 100 nM human 6His‐ZDHHC7 (Proteintech) and 100 μM palmitoyl‐CoA (Santa Cruz Biotechnology) in reaction buffer (50 mM HEPES, 150 mM NaCl, 1 mM EDTA, 1 mM (tris(2‐carboxyethyl)phosphine) (TCEP), 0.3 mM DDM, pH 7.0) for 2 h at 37 °C. Control reactions without ZDHHC7 or palm‐CoA were incubated with the appropriate volume of reaction buffer. Afterward, the reaction was centrifuged for 5 min at 13000 rpm. The precipitate was dissolved in DMSO/ACN (3:2, v/v). To enrich the peptide from the supernatant, C8 ZipTips were used. All samples were analyzed on the LC MS‐8060 triple quadrupole ESI‐MS (Shimadzu). The fluorescence intensity (λex = 493 nm, λem = 517 nm) of the samples was measured on an EC 160/2 NUCLEODUR 300‐5 C18 ec column using linear gradients from 20% to 70 % ACN in ddH2O + 0.1% FA over 7 min.

The subject of series [3] is EGFR signaling in SW480 cells. The series can be described thus: EGFR‐related signaling cascade (immunoblot). It counts as cell-based, human. The following applies: SW480, serum‐starved, 15 μM DC‐2 for 6 h. As for the experimental part: (§2) SW480 and SW620 cells (1,200,000) were seeded into a 6‐well plate. The next day, cells were once washed with PBS and starved for 18 h with DMEM + 0.2% BSA. Next, 15 μM DC‐2 diluted in DMEM + 0.2% BSA was incubated with the cells for 6 h. Control wells were only treated with the starvation medium. Afterward, all wells were washed once with PBS and 200 ng ml^−1 EGF diluted in DMEM + 0.2% BSA was added for 15 min. Cells were again washed once with PBS and ice‐cold lysis buffer (25 mM Tris, 150 mM NaCl,1 mM TCEP, 2 mM EDTA, 1% Triton‐X‐100, pH 7.4) supplemented with Halt Protease and Phosphatase Inhibitor Cocktail (Thermo Fisher) was added to scrape the cells from the well. Lysates were incubated on ice for 30 min slightly shaking. After centrifugation for 30 min at 14,000 rpm at 4 °C, lysates were mixed with 4X SDS‐PAGE loading buffer (200 mM Tris‐HCl pH 6.8, 400 mM dithiothreitol, 8% SDS, 0.4% bromophenol blue, and 40% glycerol) and heated at 95 °C for 5 min. Protein samples were analyzed by SDS‐PAGE and immunoblotting. The following antibodies were used: anti‐EGFR (Cell Signaling Technology (CST) Cat#4267), anti‐pEGFR (CST Cat #3777), anti‐AKT (CST Cat#9272); anti‐pAKT (CST Cat#4060); anti‐ERK1/2 (CST Cat#4695); anti‐pERK1/2 (CST Cat#4370); anti‐β‐actin‐horseradish peroxidase (HRP) (Santa Cruz Biotechnology Cat# sc‐47778 HRP); or anti‐rabbit‐HRP conjugate (CST Cat#7074S). Images were cropped, processed, and quantified using the ImageLab software (BioRad).
(Immunoblotting shows a protein as a band on a membrane.)

In series [4] the test system is EGFR signaling in SW620 cells. The series is described as follows: EGFR‐related signaling cascade (immunoblot). Format: cell-based, human. The conditions noted are these: SW620 (low EGFR expression), serum‐starved, 15 μM DC‐2 for 6 h, ± 200 ng ml^−1 EGF 15 min, n = 3. As for the experimental part: as §2

No end group written: not given here.

As to “GLRKRLRKFRNKKMDHHCPW-NH2 [DC‐2, CPP sC18* fused to the DHHC motif derived from ZDHHC2/3/6/7/15/16/20]”, the “cytotoxicity (cell viability)” value in the series on HeLa cells, in the series on MDA‐MB‐231 and in the series with HFF‐1 cells [1] was “most active peptide” each time. The “cytotoxicity at 100 μM” value in the series on HeLa mEGFP‐HRas cells is listed as “did not harm the cells”. In the series on HFF‐1 cells [2], the “cellular uptake (in words)” value is “internalized to a higher extent compared to DC‐4”. The “palmitoylation in presence of ZDHHC7” value on human 6His‐ZDHHC7 (100 nM ZDHHC7, 100 μM palmitoyl‐CoA, pH 7.0, 2 h) was “palmitoylated”. Besides, at human 6His‐ZDHHC7 (100 μM palmitoyl‐CoA, no ZDHHC7, pH 7.0, 2 h), the “palmitoylation in absence of ZDHHC7 (auto‐palmitoylation)” value is “auto‐palmitoylation”. Also, in series [3] (n = 3 (Figure 8B)), the “ERK and AKT phosphorylation, peptide only vs untreated” value was “slight increase in ERK and AKT phosphorylation”. The “EGFR and ERK phosphorylation, peptide and EGF vs EGF only” value in series [3] (then 200 ng ml^−1 EGF 15 min, n = 3 (Figure 8B,C)) was “increase in EGFR and ERK phosphorylation”. Moreover, the “effects on EGFR signaling” value in series [4] is given as “no effects”.
